# Assay results from the supplement of paper PMC11208160.
# Test: recombinant UMI read abundance after kanamycin selection (control-corrected) (log10(CPM+1)); higher = more efficient recombination; extreme values may be limits of the assay; sequences stand for … in AGTGCAGAGAAAATCGGCCAGTTTTCTCTGCCTGCAGTCCGCATGCCGTGGGACCCCTTGGGTTCTAACCTGTTGCCTAGATTTATGCAGCGGACTGCCTTTCTCCCAAAGTGATAAACCGG…AGGTTGGTTTCACT; site = the 11-nt donor
# Procedure, shortened: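 Each donor and donor-binding-loop pair was tracked by a 12-nt UMI on a plasmid carrying a promoterless kanamycin gene. With a second plasmid supplying a fixed target and T7-inducible IS621 bridge recombinase, the pool was plated in Escherichia coli on IPTG (0.07 mM) plus kanamycin or unselected. Sequencing of recombinant UMIs across the donor–target junction gave counts expressed as log10(CPM+1) after replicate averaging and control-derived scaling.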
row,Sequence,recombinant UMI read abundance (log10)
1,GTTGTTCCATGGACCGGTTTTCCCGGTAATCCGTATTTGTT (site GTTGTTCCTAC),0
2,GTTGTTCCATGGACCGGTTTTCCCGGTAATCCGTATTTGTT (site GTTGTTCCTAG),0
3,GTTGTTCCATGGACCGGTTTTCCCGGTAATCCGTATTTGTT (site GTTGTTCCTAT),0
4,GTTTCAACATGGACCGGTTTTCCCGGTAATCCGTATTTGAC (site GTTTCAACTGT),0.631
5,GTTTCAGCATGGACCGGTTTTCCCGGTAATCCGTATTTGTG (site GTTTCAGCTCA),0.537
6,GTTTCTGCATGGACCGGTTTTCCCGGTAATCCGTATTTGAG (site GTTTCTGCTCT),0.45
7,TAAAGGCCATGGACCGGTTTTCCCGGTAATCCGTATTTGTA (site TAAAGACCTTA),0.00739
8,TAAAGGCCATGGACCGGTTTTCCCGGTAATCCGTATTTGTA (site TAAAGCCCTTA),0.00872
9,TAAAGGCCATGGACCGGTTTTCCCGGTAATCCGTATTTGTA (site TAAAGGCCTTA),0.544
10,TAAAGGCCATGGACCGGTTTTCCCGGTAATCCGTATTTGTA (site TAAAGTCCTTA),0.12
11,TAACAACCATGGACCGGTTTTCCCGGTAATCCGTATTTGTT (site TAACAACCTAA),0.06
12,TAACGAACATGGACCGGTTTTCCCGGTAATCCGTATTTGCG (site TAACGAACTCG),1.63
13,TAACGAGCATGGACCGGTTTTCCCGGTAATCCGTATTTGGG (site TAAAGAGCTCC),0.00891
14,TAACGAGCATGGACCGGTTTTCCCGGTAATCCGTATTTGGG (site TAACGAGCTCC),0.146
15,TAACGAGCATGGACCGGTTTTCCCGGTAATCCGTATTTGGG (site TAAGGAGCTCC),0.143
16,TAACGAGCATGGACCGGTTTTCCCGGTAATCCGTATTTGGG (site TAATGAGCTCC),0.0081
17,TAACGCACATGGACCGGTTTTCCCGGTAATCCGTATTTGGT (site TAACGCACTAC),0.736
18,TAACGGTCATGGACCGGTTTTCCCGGTAATCCGTATTTGGC (site TAACGGTCTGC),2.67
19,TAACGTTCATGGACCGGTTTTCCCGGTAATCCGTATTTGTA (site TAACGTTCTTA),1.16
20,TAAGCACCATGGACCGGTTTTCCCGGTAATCCGTATTTGAA (site TAAGCACCTTT),0.0176
21,TAAGCCACATGGACCGGTTTTCCCGGTAATCCGTATTTGAC (site TAAGCCACTGT),2.78
22,TAAGCCGCATGGACCGGTTTTCCCGGTAATCCGTATTTGGG (site TAAGCCGCTCC),0.0145
23,TAAGCGCCATGGACCGGTTTTCCCGGTAATCCGTATTTGTG (site AAAGCGCCTCA),0.0246
24,TAAGCGCCATGGACCGGTTTTCCCGGTAATCCGTATTTGTG (site CAAGCGCCTCA),0.0975
25,TAAGCGCCATGGACCGGTTTTCCCGGTAATCCGTATTTGTG (site GAAGCGCCTCA),0.032

row,Sequence,recombinant UMI read abundance (log10)
1,TAAGCGCCATGGACCGGTTTTCCCGGTAATCCGTATTTGTG (site TAAGCGCCTCA),0.248
2,TAAGCTCCATGGACCGGTTTTCCCGGTAATCCGTATTTGCG (site TAAGCTCCTCG),0.303
3,TAAGGGGCATGGACCGGTTTTCCCGGTAATCCGTATTTGGC (site TAAGGGGCTGC),2.41
4,TAAGTGTCATGGACCGGTTTTCCCGGTAATCCGTATTTGCA (site TAAGTGTCTTG),3.32
5,TAATACTCATGGACCGGTTTTCCCGGTAATCCGTATTTGCA (site TAATACTCTTG),2.63
6,TAATACTCATGGACCGGTTTTCCCGGTAATCCGTATTTGCA (site TCATACTCTTG),1.69
7,TAATACTCATGGACCGGTTTTCCCGGTAATCCGTATTTGCA (site TGATACTCTTG),1.6
8,TAATACTCATGGACCGGTTTTCCCGGTAATCCGTATTTGCA (site TTATACTCTTG),1.68
9,TAATAGACATGGACCGGTTTTCCCGGTAATCCGTATTTGGC (site TAATAGACTGC),2.02
10,TAATCAGCATGGACCGGTTTTCCCGGTAATCCGTATTTGGG (site TAATAAGCTCC),0.00976
11,TAATCAGCATGGACCGGTTTTCCCGGTAATCCGTATTTGGG (site TAATCAGCTCC),0.0129
12,TAATCAGCATGGACCGGTTTTCCCGGTAATCCGTATTTGGG (site TAATGAGCTCC),0.00426
13,TAATCAGCATGGACCGGTTTTCCCGGTAATCCGTATTTGGG (site TAATTAGCTCC),0.0124
14,TAATGAGCATGGACCGGTTTTCCCGGTAATCCGTATTTGGT (site TAATGAGCTAC),0.862
15,TAATGAGCATGGACCGGTTTTCCCGGTAATCCGTATTTGGT (site TAATGAGCTCC),0.00749
16,TAATGAGCATGGACCGGTTTTCCCGGTAATCCGTATTTGGT (site TAATGAGCTGC),0
17,TAATGAGCATGGACCGGTTTTCCCGGTAATCCGTATTTGGT (site TAATGAGCTTC),0.0263
18,TAATGATCATGGACCGGTTTTCCCGGTAATCCGTATTTGGG (site TAATGAACTCC),0.0159
19,TAATGATCATGGACCGGTTTTCCCGGTAATCCGTATTTGGG (site TAATGACCTCC),0.00916
20,TAATGATCATGGACCGGTTTTCCCGGTAATCCGTATTTGGG (site TAATGAGCTCC),0.0135
21,TAATGATCATGGACCGGTTTTCCCGGTAATCCGTATTTGGG (site TAATGATCTCC),0.594
22,TAATGGGCATGGACCGGTTTTCCCGGTAATCCGTATTTGGG (site TAATGAGCTCC),0.0138
23,TAATGGGCATGGACCGGTTTTCCCGGTAATCCGTATTTGGG (site TAATGCGCTCC),0.0166
24,TAATGGGCATGGACCGGTTTTCCCGGTAATCCGTATTTGGG (site TAATGGGCTCC),0.0225
25,TAATGGGCATGGACCGGTTTTCCCGGTAATCCGTATTTGGG (site TAATGTGCTCC),0.0203

row,Sequence,recombinant UMI read abundance (log10)
1,TAATTAACATGGACCGGTTTTCCCGGTAATCCGTATTTGGT (site TAATTAACTAC),0.813
2,TAATTCCCATGGACCGGTTTTCCCGGTAATCCGTATTTGCT (site AAATTCCCTAG),0.531
3,TAATTCCCATGGACCGGTTTTCCCGGTAATCCGTATTTGCT (site CAATTCCCTAG),0.55
4,TAATTCCCATGGACCGGTTTTCCCGGTAATCCGTATTTGCT (site GAATTCCCTAG),1.7
5,TAATTCCCATGGACCGGTTTTCCCGGTAATCCGTATTTGCT (site TAATTCCCTAG),1.65
6,TACACCGCATGGACCGGTTTTCCCGGTAATCCGTATTTGAG (site TACACCGCTCT),0.702
7,TACACCGCATGGACCGGTTTTCCCGGTAATCCGTATTTGCG (site TACACCGCTCG),0.0108
8,TACACCGCATGGACCGGTTTTCCCGGTAATCCGTATTTGCG (site TCCACCGCTCG),0
9,TACACCGCATGGACCGGTTTTCCCGGTAATCCGTATTTGCG (site TGCACCGCTCG),0.0236
10,TACACCGCATGGACCGGTTTTCCCGGTAATCCGTATTTGCG (site TTCACCGCTCG),0.00838
11,TACAGCTCATGGACCGGTTTTCCCGGTAATCCGTATTTGGA (site TACAGCTCTTC),0.841
12,TACAGTCCATGGACCGGTTTTCCCGGTAATCCGTATTTGTA (site TAAAGTCCTTA),0
13,TACAGTCCATGGACCGGTTTTCCCGGTAATCCGTATTTGTA (site TACAGTCCTTA),0.128
14,TACAGTCCATGGACCGGTTTTCCCGGTAATCCGTATTTGTA (site TAGAGTCCTTA),0.198
15,TACAGTCCATGGACCGGTTTTCCCGGTAATCCGTATTTGTA (site TATAGTCCTTA),0.00977
16,TACAGTTCATGGACCGGTTTTCCCGGTAATCCGTATTTGAG (site TACAGTTCTCT),1.31
17,TACATAACATGGACCGGTTTTCCCGGTAATCCGTATTTGCA (site TACATAACTTG),0.258
18,TACATATCATGGACCGGTTTTCCCGGTAATCCGTATTTGGG (site TACATATCTCC),0
19,TACATGACATGGACCGGTTTTCCCGGTAATCCGTATTTGGT (site TACATGACTAC),0.581
20,TACCACCCATGGACCGGTTTTCCCGGTAATCCGTATTTGAC (site TACCACCCTGT),0
21,TACCCAGCATGGACCGGTTTTCCCGGTAATCCGTATTTGCT (site TACCCAGCTAG),0.0305
22,TACCCATCATGGACCGGTTTTCCCGGTAATCCGTATTTGAG (site TACCCATCTCT),0.374
23,TACCCCTCATGGACCGGTTTTCCCGGTAATCCGTATTTGGC (site TACCCCTCTGC),3.09
24,TACCCGTCATGGACCGGTTTTCCCGGTAATCCGTATTTGCT (site TACCCGTCTAG),2.07
25,TACCGTCCATGGACCGGTTTTCCCGGTAATCCGTATTTGAT (site AACCGTCCTAT),0.0188
